Patent US12606802B2, “Methods and compositions for improving the assembly of adeno-associated viruses (AAVs)” (priority 2019, dated 2026)
“Also recorded” adds a separate entry of the source.

What was measured:
[1] = tested on: AAV2 and AAV8 vector; assay: Vector production in HEK293 cells with chemical inhibitors, DRP by qPCR, serotype not separated; assay type: cell-based, adeno-associated virus
Method: (§1) Inhibitor-containing media was added to wells and transfection mixtures containing either AAV2 (light bars) or AAV8 (dark bars) production plasmids were added dropwise on top, and vector harvested 48 h later (FIG. 8A). […] To examine whether any of these were not directly inhibiting capsid assembly but rather a result of poor transfection efficiency, an upstream but important factor for vector production, the experiment was repeated adding inhibitors 4 h after transfection mixture was added to allow transfection steps to initiate (FIG. 8B).

[2] = tested on: HEK293 cells; assay: General transfection efficiency by imaging EGFP positive cells; assay type: cell-based; conditions: for transfection efficiency / EGFP expression: inhibitor 4 h post transfection
[3] = tested on: AAV; conditions: cited from earlier work
[4] = tested on: PEI-mediated transfection of plasmid DNA; conditions: cited from earlier work
[5] = tested on: VP proteins; conditions: cited from earlier work
[6] = tested on: AAV8; assay: AAV8 vector production in HEK293 cells with chemical inhibitors, DRP by qPCR; assay type: cell-based, adeno-associated virus
Method: as §1

[7] = tested on: AAV2; assay: AAV2 vector production in HEK293 cells with chemical inhibitors, DRP by qPCR; assay type: cell-based, adeno-associated virus
Method: as §1

[8] = tested on: HEK293 cells; assay: Cell viability by ATP levels (Cell Titer Glo); assay type: cell-based; conditions: 48 h
[9] = tested on: HEK293 cells; conditions: 270 uM; 48 h
Method: General transfection efficiency was assessed visually by imaging EGFP positive cells (EGFP is present in the ITR-flanked transgene plasmid), and cell health was assessed visually by brightfield imaging and quantitatively by ATP levels in drug treated wells (light shading, FIG. 8B).
In these experiments, production plasmids were transfected into HEK293 cells and the appropriate inhibitor was serial diluted and added 4 h later at the concentrations indicated along the x-axis. The inhibitor was added at the same concentrations to a parallel plate and ATP levels were quantified by Cell Titer Glo® to assess cell viability after 48 h of incubation. General transfection efficiency (EGFP; present on ITR-flanked transgene plasmid) and cell morphology (Brightfield), at concentrations listed along the x-axis, were assessed by microscopy at 48 h, immediately before vector harvest from the same well.

[10] = inhibitor added immediately before transfection, harvest 48 h
[11] = inhibitor added 4 h after transfection, harvest 48 h
[12] = 6.25 μM, inhibitor added 4 h after transfection
[13] = higher concentrations, particularly 90-270 uM, 4 h post transfection

CO/C1=C\C(C)=C\[C@@H](C)[C@@H](O)[C@@H](C)C/C(C)=C/C=C/[C@H](OC)[C@@H]([C@@H](C)[C@@H](O)[C@H](C)[C@@]2(O)C[C@@H](O)[C@H](C)[C@@H](C(C)C)O2)OC1=O [Bafilomycin A1]
reduction in vector titer ([1]; added 4 h post transfection at low doses): 10 fold | vector production ([1]; inhibitor added immediately before transfection, all doses, harvest 48 h): abolished vector production to background levels | vector titer [1, 10]: abolished vector production | transfection efficiency ([2]; low doses, added 4 h post transfection): no visibly appreciable effect | AAV infection [3]: blocks AAV infection | PEI-mediated transfection of plasmid DNA [4]: blocks PEI-mediated transfection of plasmid DNA | VP protein in the absence of AAP [5]: rescue VP protein; also recorded: rescues degradation of some serotype's VP proteins

O=C1NC(=NCc2cccs2)S/C1=C\c1ccc2ncccc2c1 [Cdk1 inhibitor IV]
vector titer [1, 11]: did not affect vector titer without concomitant decreases in both cell health and transfection efficiency | AAV8 titer [6, 12]: appreciable decrease | AAV2 production [7, 12]: no effect | cell viability ([8]; 6.25 μM, added 4 h after transfection): without affecting cell viability

NS(=O)(=O)c1ccc(N/N=C2\C(=O)Nc3ccc(Br)cc32)cc1 [Cdk2 inhibitor II]
AAV8 production [6, 13]: dose-dependent effect | decrease in AAV8 titer ([6]; higher concentrations, 4 h post transfection): ~10 fold | AAV2 production [7, 13]: dose-dependent effect | cell viability (as assayed by ATP) ([8]; 90-270 uM): without affecting cell viability | gross transfection efficiency (by EGFP visualization) ([2]; 90-270 uM, 48 h): without affecting | cell morphology [9]: affected

O=[N+]([O-])c1ccc(F)c([N+](=O)[O-])c1 [FDNB]
per cell vector production (GC per living cell) ([1]; 4 h post transfection, likely artefact of ATP-based viable cell count): increase

NS(=O)(=O)OC[C@H]1C[C@@H](Nc2ncncc2C(=O)c2ccn(Cc3cccc(Br)c3)n2)C[C@@H]1O [ML-792]
transfection efficiency / EGFP expression ([2]; 48 h): dramatic loss

Cc1ccc2nc(CN(CCN(Cc3nc4ccc(C)cc4[nH]3)Cc3nc4ccc(C)cc4[nH]3)Cc3nc4ccc(C)cc4[nH]3)[nH]c2c1 [NSC348884]
vector titer [1, 11]: not seen | vector titer [1, 10]: large effect

apoptazole
vector titer [1, 11]: strong dose dependent decrease | vector production (GC per living cell as percentage of DMSO control) ([6]; AAV8, lowest level reached, inhibitor 4 h post transfection): 5% | cell death as assayed by ATP abundance ([8]; 300 uM): did not show appreciable cell death | expression of EGFP ([2]; 300 uM, 48 h): robust expression of EGFP | transfection efficiency / EGFP expression ([2]; 48 h): no apparent loss
